# Paper PMC13020021 (International Journal for Parasitology: Drugs and Drug …, 2026)
# “Also recorded” adds a separate entry of the source.
# Experiments:
# [1] = tested on: natural TRPMPZQ variants; test: Ca2+ reporter assay, entire natural variation collection; type: cell-based, Schistosoma mansoni; details: mean ± sd
# [2] = tested on: Fasciola spp. TRPMPZQ; details: Fasciola spp. TRPMPZQ ref Park et al., 2021; cited from earlier work
# [3] = tested on: TRPMPZQ of pseudophyllidean cestodes; details: binding pocket variation of pseudophyllidean cestodes ref Sprague et al., 2025; cited from earlier work
smiles,measurement,setting,value
"O=C(C1CCCCC1)N1CC(=O)N2CCc3ccccc3C2C1 (racemic) [(±)-PZQ, praziquantel]",average RA of the entire natural variation collection,[1],1.2 ± 0.55
same,sensitivity of TRPMPZQ to PZQ,[2],insensitivity; also recorded: refractory
same,sensitivity to PZQ,[3],micromolar range
